{"source": "patent US20030229112A1", "about": "“Combination therapy for cancer” (priority 2000, published 2003)", "key": {"[1]": {"details": "irinotecan, SN-38 and APC, following administration"}, "in vivo": {"assay": "in vivo", "details": "mouse"}, "Rh18 rhabdomyosarcoma": {"system": "Rh18 rhabdomyosarcoma", "assay": "Combination study against Rh18 rhabdomyosarcoma xenografts", "type": "in vivo, mice"}, "[2]": {"details": "same total dose given over 10 days versus over 5 days or as a single administration; cited from earlier work"}, "[3]": {"system": "NB-SD neuroblastoma xenografts", "assay": "Combination study against NB-SD neuroblastoma xenografts", "type": "in vivo, mice"}, "NB-1771 tumors": {"system": "NB-1771 tumors", "assay": "Combination study against NB-1771 xenografts", "type": "in vivo, mice", "description": "It has been have shown that the antitumor activity of camptothecins is highly schedule dependent. […] To determine whether there was similar schedule-dependency for temozolomide, the antitumor activity of this agent was examined when given daily for 5 days, 2×5 days per 21 day cycle or 3×5 days per 28 day cycle. See, as incorporated by reference, Houghton, P. J. et al., Clinical Cancer Res. Vol. 6, 4110-4118, October 2000. The total dose per cycle was constant. […] In this experiment mice received a cumulative dose of 210 mg/kg per cycle. Mice received 3 cycles of treatment (total cumulative dose was 630 mg/kg)."}, "[4]": {"system": "five other xenograft lines", "assay": "Schedule dependence of temozolomide in five other xenograft lines", "type": "in vivo, mice", "procedure": "To determine whether there was similar schedule-dependency for temozolomide, the antitumor activity of this agent was examined when given daily for 5 days, 2×5 days per 21 day cycle or 3×5 days per 28 day cycle. […] The total dose per cycle was constant. […] In this experiment mice received a cumulative dose of 210 mg/kg per cycle. Mice received 3 cycles of treatment (total cumulative dose was 630 mg/kg)."}, "NB-1382 xenografts": {"system": "NB-1382 xenografts", "assay": "Schedule dependence of temozolomide against NB-1382 xenografts", "type": "in vivo, mice", "method": "It has been have shown that the antitumor activity of camptothecins is highly schedule dependent. […] The total dose per cycle was constant. […] In this experiment mice received a cumulative dose of 210 mg/kg per cycle."}, "[5]": {"system": "glioblastoma line, SJ-GBM2", "procedure": "To determine whether there was similar schedule-dependency for temozolomide, the antitumor activity of this agent was examined when given daily for 5 days, 2×5 days per 21 day cycle or 3×5 days per 28 day cycle. […] The total dose per cycle was constant. […] Mice received 3 cycles of treatment (total cumulative dose was 630 mg/kg)."}, "advanced melanoma": {"system": "advanced melanoma", "details": "cited from earlier work"}}, "data": [{"compound": "CCc1c2c(nc3ccc(OC(=O)N4CCC(NCCCCC(=O)O)CC4)cc13)-c1cc3c(c(=O)n1C2)COC(=O)[C@]3(O)CC", "note": "[APC]", "values": [{"measurement": "apparent tmax", "setting": "[1]", "value": 60, "unit": "min"}]}, {"compound": "CCc1c2c(nc3ccc(O)cc13)-c1cc3c(c(=O)n1C2)COC(=O)[C@]3(O)CC", "note": "[SN-38]", "values": [{"measurement": "apparent tmax", "setting": "[1]", "value": 15, "unit": "min"}]}, {"compound": "CCc1c2c(nc3ccc(OC(=O)N4CCC(N5CCCCC5)CC4)cc13)-c1cc3c(c(=O)n1C2)COC(=O)[C@]3(O)CC", "note": "[irinotecan, 7-ethyl-10-(4-[1-piperidino)-1-piperidino]-carbonyloxy-camptothecin]", "values": [{"measurement": "AUC(0-inf)", "setting": "in vivo", "value": 1820, "unit": "ng·h/mL"}, {"measurement": "Cmax", "setting": "in vivo", "value": 1240, "unit": "ng/mL"}, {"measurement": "Tmax", "setting": "in vivo", "value": 30, "unit": "min"}, {"measurement": "tumor response", "setting": "Rh18 rhabdomyosarcoma; CPT-11 alone at the doses used in the combination", "value": "few CRs"}, {"measurement": "antitumor activity by schedule", "setting": "[2]", "value": "significantly more active"}, {"measurement": "tumor response", "setting": "[3]; CPT-11 alone at 0.4 mg/kg", "value": "tumors progressed"}, {"measurement": "tumor response", "setting": "NB-1771 tumors; CPT-11 alone at 0.61 mg/kg", "value": "an occasional CR"}, {"measurement": "tumor status at week 12", "setting": "NB-1771 tumors; CPT-11 alone at 1.25 or 0.61 mg/kg", "value": "all tumors had progressed"}]}, {"compound": "Cn1nnc2c(C(N)=O)ncn2c1=O", "note": "[temozolomide, 3,4-dihydro-3-methyl-4-oxoimidazo-[5,1-d]1,2,3,4-tetrazin-8-carboximide]", "values": [{"measurement": "activity of most intensive schedule (daily for 5 consecutive days per cycle) compared to the other schedules", "setting": "[4]; all experiments", "value": "either more active or equally active"}, {"measurement": "schedule-dependent antitumor activity", "setting": "[4]; five other xenograft lines (data not shown)", "value": "Far less schedule-dependent antitumor activity"}, {"measurement": "tumor response", "setting": "NB-1382 xenografts; lower doses given over more protracted periods (2x5 days per 21 day cycle, 3x5 days per 28 day cycle), same total dose per cycle", "value": "progressively less effective"}, {"measurement": "tumor response", "setting": "NB-1382 xenografts; temozolomide given over 5 days, 42 mg/kg/dose, 210 mg/kg per cycle, 3 cycles", "value": "CRs were achieved in all mice, and were maintained at week 12"}, {"measurement": "overall effect of treatment", "setting": "[5]; temozolomide alone at 42 mg/kg, tumor volume at end of treatment similar to initiation", "value": "stasis"}, {"measurement": "tumor response", "setting": "[5]; temozolomide alone at 66 or 42 mg/kg, during the 8 weeks of treatment", "value": "some PRs, and an occasional CR"}, {"measurement": "toxicity", "setting": "[5]; temozolomide alone, higher dose level (66 mg/kg)", "value": "lethal during cycle 3 of treatment"}, {"measurement": "AUC(0-inf)", "setting": "in vivo", "value": 47000, "unit": "ng·h/mL"}, {"measurement": "Cmax", "setting": "in vivo", "value": 36000, "unit": "ng/mL"}, {"measurement": "Tmax", "setting": "in vivo", "value": 30, "unit": "min"}, {"measurement": "clinical responses, % of patients", "setting": "advanced melanoma; patients having advanced melanoma, Newlands et al., Br. J Cancer 1992", "value": 17, "unit": "%"}, {"measurement": "clinical response, % of patients", "setting": "advanced melanoma; patients with advanced melanoma, Journal of Clinical Oncology 1995", "value": 21, "unit": "%"}, {"measurement": "sensitivity of xenograft to single agent", "setting": "Rh18 rhabdomyosarcoma; temozolomide as a single agent", "value": "poorly sensitive"}, {"measurement": "tumor response", "setting": "[3]; temozolomide alone at tolerated dose levels", "value": "little activity"}, {"measurement": "sensitivity of tumors to single agent", "setting": "NB-1771 tumors; temozolomide as a single agent", "value": "relatively sensitive"}]}]}
